Measured values from PubChem BioAssay (NCI).
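Cells were grown in 96-well plates and exposed to each compound for 48 hours at five concentrations; endpoints were interpolated linearly between bracketing concentrations, or set to the highest concentration if not reached. GI50 marks 50% less growth. The concentration for full growth arrest is given as TGI.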

What was measured:
Assay in all cases: NCI-60 cell line screen, 48 h
[1] = system: OVCAR-5 ovarian
[2] = system: SK-OV-3 ovarian
[3] = system: NCI-H226 lung
[4] = system: MDA-MB-231 breast
[5] = system: 786-0 renal
[6] = system: SK-MEL-2 melanoma
[7] = system: HOP-62 NSCLC
[8] = system: PC-3 prostate
[9] = system: UO-31 renal
[10] = system: SW-620 colon
[11] = system: HL-60(TB) leukemia
[12] = system: NCI-H460 lung
[13] = system: SNB-75 CNS
[14] = system: SF-539 CNS
[15] = system: NCI/ADR-RES ovarian
[16] = system: UACC-62 melanoma
[17] = system: COLO 205 colon
[18] = system: SK-MEL-5 melanoma
[19] = system: M14 melanoma
[20] = system: HS 578T breast
[21] = system: HT29 colon
[22] = system: HCT-15 colon
[23] = system: LOX IMVI melanoma
[24] = system: KM12 colon
[25] = system: OVCAR-3 ovarian
[26] = system: NCI-H522 lung
[27] = system: OVCAR-4 ovarian
[28] = system: SF-268 CNS
[29] = system: T-47D breast

`CN(C)CCCOc1c2ccc(Cl)cc2nc2c1oc1ccccc12` gave a TGI [1] of 8040 nM, a GI50 [2] of 2420 nM and a TGI [2] of 9550 nM. The GI50 [3] was 2140 nM, the TGI [3] was 6770 nM and the GI50 [4] was 1800 nM. The TGI [4] was 8490 nM, the GI50 [5] was 1780 nM and the TGI [5] was 11200 nM. The GI50 [6] was 1860 nM, the TGI [6] was 3530 nM and the GI50 [7] was 2090 nM. For the same molecule, the TGI [7] was 11600 nM, the GI50 [8] was 1710 nM and the TGI [8] was 5410 nM. For the same molecule, the GI50 [9] was 553 nM, the TGI [9] was 3370 nM and the GI50 [10] was 535 nM. For the same molecule, the TGI [10] was 8310 nM, the GI50 [11] was 1830 nM and the TGI [11] was 5880 nM. It also gave a GI50 [12] of 557 nM, a TGI [12] of 10200 nM and a GI50 [13] of 1480 nM. The TGI [13] was 2850 nM, the GI50 [14] was 1430 nM and the TGI [14] was 2840 nM. For the same molecule, the GI50 [15] was 677 nM, the TGI [15] was 6650 nM and the GI50 [16] was 1750 nM. The TGI [16] was 3610 nM, the GI50 [17] was 1080 nM and the TGI [17] was 2520 nM. For the same molecule, the GI50 [18] was 1780 nM, the TGI [18] was 3210 nM and the GI50 [19] was 1500 nM. For the same molecule, the TGI [19] was 3130 nM, the GI50 [20] was 2150 nM and the TGI [20] was 10100 nM. For the same molecule, the GI50 [21] was 713 nM, the TGI [21] was 3000 nM and the GI50 [22] was 1070 nM. The TGI [22] was 10100 nM, the GI50 [23] was 516 nM and the TGI [23] was 1830 nM. For the same molecule, the GI50 [24] was 1870 nM, the TGI [24] was 11900 nM and the GI50 [25] was 2620 nM. The TGI [25] was 12700 nM, the GI50 [26] was 1570 nM and the TGI [26] was 4610 nM. For the same molecule, the GI50 [27] was 1750 nM, the TGI [27] was 7310 nM and the GI50 [28] was 1620 nM. It also gave a TGI [28] of 11200 nM, a GI50 [29] of 2640 nM and a TGI [29] of 9870 nM.
